Patent US20050038110A1, “Selective androgen receptor modulators and methods of use thereof” (priority 2000, published 2005)

Legend:
[1] = system: androgen-responsive tissues (prostate, seminal vesicles and levator ani muscle) of castrated rats; test: Androgenic and anabolic activity in castrated rat model, 14 days of administration; conditions: for prostate and seminal vesicle weights / Levator Ani organ weight / Prostate organ weight / Seminal Vesicles organ weight: 14 days; for prostate and seminal vesicle weights: % of that observed in intact animals (FIG. 1); for Levator Ani organ weight / Prostate organ weight / Seminal Vesicles organ weight: mean ± S.D.; for prostate, seminal vesicle and levator ani muscle weights: 14 days (FIG. 3)
[2] = Pharmacokinetic studies (in vivo clearance); conditions: comparison among N-1 to N-4
[3] = compared with testosterone propionate (FIG. 3)

C[C@](O)(COc1ccc(F)cc1)C(=O)Nc1ccc([N+](=O)[O-])c(C(F)(F)F)c1 [Compound 1]
prostate and seminal vesicle weights ([1]; 0.1-1.0 mg/day): less than 20%

C[C@](O)(COc1ccc(Cl)cc1)C(=O)Nc1ccc([N+](=O)[O-])c(C(F)(F)F)c1 [Compound 2]
levator ani muscle weight ([1]; 0.1-1.0 mg/day, 14 days (FIG. 1), versus intact animals): same level as that of intact animals | prostate and seminal vesicle weights ([1]; 0.1-1.0 mg/day): less than 40%

C[C@](O)(COc1ccc(Br)cc1)C(=O)Nc1ccc([N+](=O)[O-])c(C(F)(F)F)c1 [Compound 3]
prostate and seminal vesicle weights ([1]; 0.1-1.0 mg/day): less than 20%

C[C@](O)(COc1ccc(I)cc1)C(=O)Nc1ccc([N+](=O)[O-])c(C(F)(F)F)c1 [Compound 4]
prostate and seminal vesicle weights ([1]; 0.1-1.0 mg/day): less than 20%

C[C@](O)(COc1ccc(F)cc1)C(=O)Nc1ccc(C#N)c(C(F)(F)F)c1 [Compound 5]
Levator Ani organ weight ([1]; 0.10 mg/day): 54.9 ± 5.77 % of intact | Prostate organ weight ([1]; 0.10 mg/day): 6.4 ± 0.82 % of intact | Seminal Vesicles organ weight ([1]; 0.10 mg/day): 8.8 ± 1.18 % of intact | Levator Ani organ weight ([1]; 0.50 mg/day): 55.0 ± 9.23 % of intact | Prostate organ weight ([1]; 0.50 mg/day): 6.2 ± 0.56 % of intact | Seminal Vesicles organ weight ([1]; 0.50 mg/day): 9.3 ± 1.57 % of intact | Levator Ani organ weight ([1]; 0.75 mg/day): 68.9 ± 8.46 % of intact | Prostate organ weight ([1]; 0.75 mg/day): 7.6 ± 0.74 % of intact | Seminal Vesicles organ weight ([1]; 0.75 mg/day): 9.8 ± 3.65 % of intact | Levator Ani organ weight ([1]; 1.00 mg/day): 75.2±9.51 % of intact | Prostate organ weight ([1]; 1.00 mg/day): 8.7±1.39 % of intact | Seminal Vesicles organ weight ([1]; 1.00 mg/day): 10.7±0.91 % of intact

C[C@](O)(COc1ccc(Cl)cc1)C(=O)Nc1ccc(C#N)c(C(F)(F)F)c1 [Compound 6]
prostate, seminal vesicle and levator ani muscle weights ([1]; 0.1-1.0 mg/day): dose-dependent increases | potency and intrinsic activity in increasing the weight of levator ani muscle [1, 3]: greater potency and intrinsic activity | potency and intrinsic activity in increasing the weights of prostate and seminal vesicle [1, 3]: lower potency and intrinsic activity | levator ani muscle weight ([1]; dose as low as 0.3 mg/day, versus intact animals (FIG. 3)): same level as that of intact animals

C[C@](O)(COc1ccc([N+](=O)[O-])cc1)C(=O)Nc1ccc([N+](=O)[O-])c(C(F)(F)F)c1 [Compound N-1]
weight of the levator ani muscle ([1]; 1 mg/day for 14 days): 105%±13%

C[C@](O)(COc1ccc(C#N)cc1)C(=O)Nc1ccc([N+](=O)[O-])c(C(F)(F)F)c1 [Compound N-2]
weight of the levator ani muscle ([1]; 1 mg/day for 14 days): 119%±16%

C[C@](O)(COc1ccc([N+](=O)[O-])cc1)C(=O)Nc1ccc(C#N)c(C(F)(F)F)c1 [Compound N-3]
weight of the levator ani muscle ([1]; 1 mg/day for 14 days): 130%±5%

C[C@](O)(COc1ccc(C#N)cc1)C(=O)Nc1ccc(C#N)c(C(F)(F)F)c1 [Compound N-4]
in vivo clearance [2]: lowest in vivo clearance | weight of the levator ani muscle ([1]; 1 mg/day for 14 days): 142%±17% | in vivo pharmacologic activity ([1]; 1 mg/day for 14 days, comparison among N-1 to N-4): greatest activity

CCC(=O)O[C@H]1CC[C@H]2[C@@H]3CCC4=CC(=O)CC[C@]4(C)[C@H]3CC[C@]12C [testosterone propionate, reference compound]
prostate, seminal vesicle and levator ani muscle weights ([1]; 0.1-1.0 mg/day): dose-dependent manner
